The results in this text go back to patent publication US7705045B2, “Prodrugs built as multiple self-elimination-release spacers” (Syntarga, B.V., priority 2003, dated 2010).

≈ marks a conversion by molar mass, not a printed value. Entries after “also recorded” stand apart in the source; their conditions may differ.

A short description of series [1]: Release of leaving groups upon reduction of the nitro group with zinc and acetic acid (TLC, 1H-NMR). The series is classed as physicochemical. Here is the method:
Proof of principle for triple elimination. Formation of benzyl alcohol upon reduction of 13 (see FIG. 19). Compound 13 was dissolved in 3 mL of MeOH/AcOH/THF (1.5/0.5/1). Zinc powder was added and the reaction mixture was stirred at Rt. […] The mixture was filtered over hyflo and the residue was washed with MeOH/dichloromethane.
Proof of principle for triple elimination. Formation of phenethyl alcohol upon reduction of 14 (see FIG. 19). Compound 14 was dissolved in 3.75 mL of MeOH/AcOH/THF (2/0.75/1). Zinc powder was added and the reaction mixture was stirred at Rt. […] The mixture was filtered over hyflo and the residue was washed with MeOH/dichloromethane.
Reduction of the nitro group in 15. Failure of elimination of benzylamine (see FIG. 20). Compound 15 (16 mg) was dissolved in 10 mL of MeOH/AcOH (8/2). Zinc powder was added and the reaction mixture was stirred at Rt. […] The mixture was filtered over hyflo and the residue was washed with MeOH/dichloromethane. The filtrate was concentrated in vacuo, the mixture was freeze-dried. Under a number of varied circumstances (different deuterated solvent combinations, different pH (acidic, neutral, and basic), different buffers), ^1H-NMR did hardly show formation of free benzylamine. After 2 days, maximally 33 percent of free benzylamine was observed (^1H-NMR).
Proof of principle for double elimination. Formation of paclitaxel upon reduction of 22 (see FIG. 22). Nitrocinnamyl biscarbonate 22 was dissolved in 3.5 mL of MeOH/AcOH/THF (2/0.5/1). Zinc powder was added and the reaction mixture was stirred at Rt. […] The mixture was filtered over hyflo and the residue was washed with MeOH/dichloromethane. The filtrate was concentrated in vacuo, dioxane was added and the resulting solution was freeze-dried.
Proof of principle for quadruple elimination. Formation of paclitaxel upon reduction of 26 (see FIG. 23). Compound 26 was dissolved in 3.25 mL MeOH/AcOH/TF (1.5/0.75/1). Zinc powder was added and the reaction mixture was stirred. […] After 16 h, the mixture was filtered over hyflo and the residue was washed with MeOH/dichloromethane. […]

For another series, the system named is MCF-7; breast cancer. Nature of the series: SRB anti-proliferative test, MCF-7. The series is classed as cell-based, human. The settings on record: 5 days of incubation. Here is the method:
(§1) Cytoxicity of multiple release spacers 16 and 23. The anti-proliferative effect of the monomeric spacers was determined in vitro applying seven well-characterised human tumor cell lines and the microculture sulphorhodamine B (SRB) test. The anti-proliferative effects were determined and expressed as ID50 values (ng/mL), which are the (pro)drug concentrations that gave 50% inhibition of cell growth when compared to control cell growth after 5 days of incubation.

A further series has as its system EVSA-T; breast cancer. In words: SRB anti-proliferative test, EVSA-T. The series is classed as cell-based, human. The settings on record: 5 days of incubation. How it is done: as §1
In another series the test system is WIDR; colon cancer. Nature of the series: SRB anti-proliferative test, WIDR. The series is classed as cell-based, human. The settings on record: 5 days of incubation. Here is the method: as §1
The next series concerns IGROV; ovarian cancer. In words: SRB anti-proliferative test, IGROV. The series is classed as cell-based, human. The settings on record: 5 days of incubation. Here is the method: as §1
In a further series the test system is M19; melanoma. Nature of the series: SRB anti-proliferative test, M19. The note with it: 5 days of incubation. The series is classed as cell-based, human. Here is the method: as §1
The next series has as its system A498; renal cancer. Nature of the series: SRB anti-proliferative test, A498. The series is classed as cell-based, human. The settings on record: 5 days of incubation. How it is done: as §1
The subject of series [2] is H226; non-small cell lung cancer. In words: SRB anti-proliferative test, H226. The settings on record: 5 days of incubation. The series is classed as cell-based, human. How it is done: as §1
The subject of series [3] is seven well-characterised human tumor cell lines. Nature of the series: Cytotoxicity in a panel of seven human tumor cell lines. The series is classed as cell-based. The text has this: Upon removal or transformation of the specifier V in the compounds or prodrugs disclosed in this invention, thus upon unmasking of B of the branched spacer or spacer system coupled to V, under physiological conditions, the reactive intemiediate(s) formed after self-elimination is (are) likely to be trapped by water, thereby regenerating molecules like aminodiol 23 and/or aminotriol 16. When a multiple release conjugate or prodrug constructed with one of the monomers disclosed in this invention is used for drug delivery purposes, the degradation products of the prodrug or (bio)conjugate after the multiple self-elimination cascade must be non-toxic (except from drugs to be released in tumor targeting approaches). Therefore, we have tested the aminotriol monomer 16 and aminodiol monomer 23 for their cytotoxicity in a panel of seven weul-characterized human tumor cell lines. Both compounds turned out to be non-toxic (see example 33).
Cytoxicity of multiple release spacers 16 and 23. The anti-proliferative effect of the monomeric spacers was determined in vitro applying seven well-characterised human tumor cell lines and the microculture sulphorhodamine B (SRB) test. […]

The nature of series [4]: Stability of reference compounds on treatment with zinc and acetic acid. The note with it: zinc powder, MeOH/THF/AcOH, Rt, 16 h. The series is classed as physicochemical. Here is the method: Stability of 35. Treatment of 35 with Zinc (see FIG. 28). Dibenzyl carbonate 35 (13 mg) was dissolved in 2.5 mL MeOH/THF/AcOH (1.5/0.5/0.5). Zinc powder was added and the reaction mixture was stirred at Rt for 16 h. […] The mixture was filtered over hyflo and the residue was washed with MeOH/dichloromethane.
Stability of 36. Treatment of 36 with Zinc (see FIG. 28). Paclitaxel-2′-carbonate 36 (3 mg) was dissolved in 2.5 mL MeOH/THF/AcOH (1.5/0.5/0.5). Zinc powder was added and the reaction mixture was stirred at Rt for 16 h. […] The mixture was filtered over hyflo and the residue was washed with MeOH/dichloromethane. The filtrate was concentrated in vacuo.

Setting [5] is: zinc powder, MeOH/AcOH(/THF), Rt.

On to `O=C(NCc1ccccc1)OCc1ccc([N+](=O)[O-])cc1` [Compound 34], for which the “release of leaving groups by 1H-NMR” value in series [1] (after reduction with zinc/acetic acid) is listed as “complete release of free benzylamine”. Moreover, in series [1] (setting [5]), the “formation of free leaving group by thin layer chromatography” value is listed as “formation of a substantial amount of benzylamine” and the “time to disappearance of starting compound (thin layer chromatography)” value is listed as 100 min.

In the case of `Nc1ccc(C=C(CO)CO)cc1` [Compound 23], the ID50 in the series with MCF-7; breast cancer is more than 0.0625 µg/mL; with EVSA-T; breast cancer, more than 0.0625 µg/mL; in the series with WIDR; colon cancer, more than 0.0625 µg/mL; in the series with IGROV; ovarian cancer, more than 0.0625 µg/mL; in the series with M19; melanoma, more than 0.0625 µg/mL; in the series on A498; renal cancer it was 0.056784 µg/mL (≈ 0.317 µM). The ID50 in series [2] amounted to 0.042406 µg/mL (≈ 0.237 µM). The cytotoxicity result in [3] was “non-toxic”.

On to `O=C(OCc1ccccc1)OCc1ccccc1` [Compound 35, Dibenzyl carbonate], for which the “stability on treatment with zinc and acetic acid (TLC, 1H-NMR)” value in series [4] is “did not show any degradation; also recorded: no formation of new compounds”.

As for “2′-O-cinnamyloxycarbonylpaclitaxel [Compound 36]”, the “stability on treatment with zinc and acetic acid (TLC, 1H-NMR)” value in series [4] is listed as “did not show any degradation; also recorded: no formation of new compounds”.
